From patent US9242981B2, “Fused pyrazole derivatives as novel ERK inhibitors” (Merck Sharp & Dohme Corp., priority 2010, dated 2016)

Molecular target: Mouse ERK2 protein (Mus musculus (Mouse), UniProt P63085)
Assay: Coupled MEK1/ERK2 IMAP assay or Active ERK2 IMAP assay
Type: biochemical
Method: 14 μl of kinase buffer (10 mM Tris.HCl pH 7.2, 10 mM MgCl2, 0.01% Tween-20, 1 mM DTT) containing 0.4 ng unphosphorylated Mouse ERK2 protein is added to each well of a black 384-well assay plate. […] DMSO concentration during initial incubation is 6.7%. […] DMSO concentration during ERK activation was 4%. After one hour, reactions are terminated by addition of 60 μl IMAP detections beads in binding buffer (Molecular Devices). Binding is allowed to equilibrate for 30 minutes before reading the plate on an LJL Analyst Fluorescence Polarization plate reader.
Activated ERK2 activity was also determined in the IMAP assay format using the procedure outlined above. […] Reactions proceeded for 30 minutes before termination by addition of […] IMAP detection beads in binding buffer. Plates were read as above after 30 minute binding equilibration.

[1] = Table 1, class symbols, 30 μM ATP

Mouse ERK2 protein, sequence (P63085 whole entry): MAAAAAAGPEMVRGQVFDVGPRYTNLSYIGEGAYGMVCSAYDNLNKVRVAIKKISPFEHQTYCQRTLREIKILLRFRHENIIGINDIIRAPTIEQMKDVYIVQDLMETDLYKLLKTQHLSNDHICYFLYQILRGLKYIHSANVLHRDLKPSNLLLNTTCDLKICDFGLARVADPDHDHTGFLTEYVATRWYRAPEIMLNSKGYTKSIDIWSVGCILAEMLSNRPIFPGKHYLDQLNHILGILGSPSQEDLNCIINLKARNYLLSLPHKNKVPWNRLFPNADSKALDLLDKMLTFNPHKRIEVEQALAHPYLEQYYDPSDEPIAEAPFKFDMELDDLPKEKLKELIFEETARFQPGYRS

## O=C(NC1CN(Cc2c(F)cccc2F)CCC1F)N1CCc2[nH]nc(-c3ccc4nccn4c3)c2C1 (mixture of isomers) [Compound 156, N-[cis/trans-1-[(2,6-difluorophenyl)methyl]-4-fluoro-3-piperidinyl]-1,4,6,7-tetrahydro-3-imidazo[1,2-a]pyridin-6-yl-5H-pyrazolo[4,3-c]pyridine-5-carboxamide]
[1]
  IC50: 101 to 1000 nM

## Cc1cc(-c2n[nH]c3c2CN(C(=O)NC2CN(Cc4c(F)cccc4F)CCC2F)CC3)ccn1 (mixture of isomers) [Compound 158, N-[cis/trans-1-[(2,6-difluorophenyl)methyl]-4-fluoro-3-piperidinyl]-1,4,6,7-tetrahydro-3-(2-methyl-4-pyridinyl)-5H-pyrazolo[4,3-c]pyridine-5-carboxamide]
[1]
  IC50: 101 to 1000 nM

## CC1(C(=O)N[C@H]2CNC[C@@H]2c2ccccc2)CCc2[nH]nc(-c3ccncc3)c2C1 (mixture of isomers) [Compound 4, 4,5,6,7-tetrahydro-5-methyl-N-(trans-4-phenyl-3-pyrrolidinyl)-3-(4-pyridinyl)-1H-indazole-5-carboxamide (mixture of isomers)]
[1]
  IC50: 101 to 1000 nM

## O=C(N[C@H]1CNC[C@@H]1c1ccccc1)[C@@H]1CCc2[nH]nc(-c3ccncc3)c2C1 (racemic) [Compound 12, 4,5,6,7-tetrahydro-N-(trans-4-phenyl-3-pyrrolidinyl)-3-(4-pyridinyl)-1H-indazole-5(R)-carboxamide]
[1]
  IC50: 101 to 1000 nM

## O=C(N[C@H]1CNC[C@@H]1c1ccccc1)[C@H]1CCc2[nH]nc(-c3ccncc3)c2C1 (racemic) [Compound 13, 4,5,6,7-tetrahydro-N-(trans-4-phenyl-3-pyrrolidinyl)-3-(4-pyridinyl)-1H-indazole-5(S)-carboxamide]
[1]
  IC50: 21 to 100 nM

## O=C(N[C@H]1CNC[C@@H]1c1ccccc1)N1CCc2[nH]nc(-c3ccncc3)c2C1 (racemic) [Compound 37, 1,4,6,7-tetrahydro-N-(trans-4-phenyl-3-pyrrolidinyl)-3-(4-pyridinyl)-5H-pyrazolo[4,3-c]pyridine-5-carboxamide]
Table 2, 30 μM ATP
  IC50: 1.16 nM

## O=C(N[C@H]1CNC[C@@H]1c1ccccc1)C1CCc2[nH]nc(-c3ccc4ncsc4c3)c2C1 (mixture of isomers) [Compound 43, 3-(6-benzothiazolyl)-4,5,6,7-tetrahydro-N-(trans-4-phenyl-3-pyrrolidinyl)-1H-indazole-5-carboxamide]
[1]
  IC50: 1000 to 100000 nM

## O=C(N[C@H]1CNC[C@@H]1c1ccccc1)[C@H]1CCc2[nH]nc(-c3ccc4ncsc4c3)c2C1 (racemic) [Compound 44, 3-(6-benzothiazolyl)-4,5,6,7-tetrahydro-N-(trans-4-phenyl-3-pyrrolidinyl)-1H-indazole-5(S)-carboxamide]
[1]
  IC50: 1000 to 100000 nM

## Cc1ccccc1[C@@H]1CN(C)C[C@H]1NC(=O)N1CCc2[nH]nc(-c3ccc(F)cc3)c2C1 (racemic) [Compound 141, 3-(4-fluorophenyl)-1,4,6,7-tetrahydro-N-[trans-1-methyl-4-(2-methylphenyl)-3-pyrrolidinyl]-5H-pyrazolo[4,3-c]pyridine-5-carboxamide]
[1]
  IC50: < 20 nM

## O=C(N[C@@H]1CCC[C@H]1c1ccccc1)N1CCc2[nH]nc(-c3ccncc3)c2C1 (racemic) [Compound 143, 1,4,6,7-tetrahydro-N-[trans-2-phenylcyclopentyl]-3-(4-pyridinyl)-5H-pyrazolo[4,3-c]pyridine-5-carboxamide]
[1]
  IC50: < 20 nM

## Cc1ccccc1[C@@H]1CN(C)C[C@H]1NC(=O)N1CCc2[nH]nc(-c3ccc4c(c3)CCO4)c2C1 (racemic) [Compound 145, 3-(2,3-dihydro-5-benzofuranyl)-1,4,6,7-tetrahydro-N-[trans-1-methyl-4-(2-methylphenyl)-3-pyrrolidinyl]-5H-pyrazolo[4,3-c]pyridine-5-carboxamide]
Table 2, 30 μM ATP
  IC50: 1.52 nM

## CCn1cc(-c2n[nH]c3c2CN(C(=O)NC2CN(C)CC2c2ccccc2C)CC3)cn1 (racemic) [Compound 147, 3-(1-ethyl-1H-pyrazoI-4-yl)-1,4,6,7-tetrahydro-N-ttrans-1-methyl-4-(2-methylphenyl)-3-pyrrolidinyl]-5H-pyrazolo[4,3-c]pyridine-5-carboxamide]
Table 2, 30 μM ATP
  IC50: 1.9 nM

## CN1C[C@@H](NC(=O)N2CCc3[nH]nc(-c4ccncc4)c3C2)[C@H](c2ccccc2C(F)(F)F)C1 (racemic) [Compound 149, 1,4,6,7-tetrahydro-N-[trans-1-methyl-4-[2-(trifluoromethyl)phenyl]-3-pyrrolidinyl]-3-(4-pyridinyl)-5H-pyrazolo[4,3-c]pyridine-5-carboxamide]
[1]
  IC50: < 20 nM

## CN1C[C@@H](NC(=O)N2CCc3[nH]nc(-c4ccc(F)cc4)c3C2)[C@H](c2ccccc2C(F)(F)F)C1 (racemic) [Compound 151, 3-(4-fluorophenyl)-1,4,6,7-tetrahydro-N-[trans-1-methyl-4-[2-(trifluoromethyl)phenyl]-3-pyrrolidinyl]-5H-pyrazolo[4,3-c]pyridine-5-carboxamide]
[1]
  IC50: < 20 nM

## CN1C[C@@H](NC(=O)N2CCc3[nH]nc(-c4ccc5c(c4)CCO5)c3C2)[C@H](c2ccccc2C(F)(F)F)C1 (racemic) [Compound 153, 3-(2,3-dihydro-5-benzofuranyl)-1,4,6,7-tetrahydro-N-[trans-1-methyl-4-[2-(trifluoromethyl)phenyl]-3-pyrrolidinyl]-5H-pyrazolo[4,3-c]pyridine-5-carboxamide]
[1]
  IC50: < 20 nM

## CCn1cc(-c2n[nH]c3c2CN(C(=O)N[C@@H]2CN(C)C[C@H]2c2ccccc2C(F)(F)F)CC3)cn1 (racemic) [Compound 155, 3-(1-ethyl-1H-pyrazol-4-yl)-1,4,6,7-tetrahydro-N-[trans1-methyl-4-[2-(trifluoromethyl)phenyl]-3-pyrrolidinyl]-5H-pyrazolo[4,3-c]pyridine-5-carboxamide]
[1]
  IC50: < 20 nM

## Cc1ccc([C@@H]2CNC[C@H]2NC(=O)N2CCc3[nH]nc(-c4ccncc4)c3C2)cc1 (racemic) [Compound 157, 1,4,6,7-tetrahydro-N-[trans-4-(4-methylphenyl)-3-pyrrolidinyl]-3-(4-pyridinyl)-5H-pyrazolo[4,3-c]pyridine-5-carboxamide]
[1]
  IC50: < 20 nM

## Cc1ccc(C2CN(C)CC2NC(=O)N2CCc3[nH]nc(-c4ccncc4)c3C2)cc1 (racemic) [Compound 159, 1,4,6,7-tetrahydro-N-[trans-1 methyl-4-(4-methylphenyl)-3-pyrrrolidinyl]-3-(4-pyridinyl)-5H-pyrazolo[4,3-c]pyridine-5-carboxamide]
[1]
  IC50: < 20 nM

## CCN1C[C@@H](NC(=O)N2CCc3[nH]nc(-c4ccncc4)c3C2)[C@H](c2ccc(C)cc2)C1 (racemic) [Compound 161, N-[trans-1-ethyl-4-(4-methylphenyl)-3-pyrrolidinyl]-1,4,6,7-tetrahydro-3-(4-pyridinyl)-5H-pyrazolo[4,3-c]pyridine-5-carboxamide]
[1]
  IC50: < 20 nM

## CN1C[C@@H](NC(=O)N2CCc3[nH]nc(-c4ccncc4)c3C2)[C@H](c2ccccc2-c2ccccc2)C1 (racemic) [Compound 163, N-[trans-4-[1,1′-biphenyl]-2-yl-1-methyl-3-pyrrolidinyl]-1,4,6,7-tetrahydro-3-(4-pyridinyl)-5H-pyrazolo[4,3-C]pyridine-5-carboxamide]
[1]
  IC50: < 20 nM

## CC(C)(C)OC(=O)N1C[C@@H](NC(=O)N2CCc3[nH]nc(-c4ccncc4)c3C2)[C@H](c2cccc(-c3ccccc3)c2)C1 (racemic) [Compound 165, 1,1-dimethylethyl trans-3-[1,1′-biphenyl]-3-yl-4-[[[1,4,6,7-tetrahydro-3-(4-pyridinyl)-5H-pyrazolo[4,3-c]pyridin-5-yl]carbonyl]amino]-1-pyrrolidinecarboxylate]
[1]
  IC50: 101 to 1000 nM

## O=C(N[C@@H]1CNC[C@H]1c1cccc(-c2ccccc2)c1)N1CCc2[nH]nc(-c3ccncc3)c2C1 (racemic) [Compound 167, N-[trans-4-[1,1′-biphenyl]-3-yl-3-pyrrolidinyl]-1,4,6,7-tetrahydro-3-(4-pyridinyl)-5H-pyrazolo[4,3-c]pyridine-5-carboxamide]
[1]
  IC50: < 20 nM

## CN1C[C@@H](NC(=O)N2CCc3[nH]nc(-c4ccncc4)c3C2)[C@H](c2cccc(-c3ccccc3)c2)C1 (racemic) [Compound 169, N-[trans-4-[1,1′-biphenyl]-3-yl-1-methyl-3-pyrrolidinyl]-1,4,6,7-tetrahydro-3-(4-pyridinyl)-5H-pyrazolo[4,3-c]pyridine-5-carboxamide]
[1]
  IC50: < 20 nM

## O=C(N[C@@H]1CCCNC1)N1CCc2[nH]nc(-c3ccncc3)c2C1 (single isomer, unassigned) [Compound 171]
[1]
  IC50: 101 to 1000 nM

## O=C(N[C@@H]1CCCN(Cc2ccccc2)C1)N1CCc2[nH]nc(-c3ccncc3)c2C1 (single isomer, unassigned) [Compound 175]
[1]
  IC50: < 20 nM

## O=C(NC1CC[C@H]2CC[C@@H]1N2Cc1c(F)cccc1F)N1CCc2[nH]nc(-c3ccc4nccn4c3)c2C1 (stereo in doubt) [Compound 182, N-[8-[(2,6-difluorophenyl)methyl]-8-azabicyclo[3.2.1]oct-2-yl]-1,4,6,7-tetrahydro-3-imidazo[1,2-a]pyridin-6-yl-5H-pyrazolo[4,3-c]pyridine-5-carboxamide]
[1]
  IC50: 101 to 1000 nM

## CCn1cc(Cl)c(NC(=O)C2CCc3[nH]nc(-c4ccncc4)c3C2)n1 (stereo not shown) [Compound 2, N-(4-chloro-1-ethyl-1H-pyrazol-3-yl)-4,5,6,7-tetrahydro-3-(4-pyridinyl)-1H-indazole-5-carboxamide]
[1]
  IC50: 1000 to 100000 nM

## COc1cccc(CC(=O)N2CCc3[nH]nc(-c4ccncc4)c3C2)c1 [Compound 3, 4,5,6,7-tetrahydro-5-[(3-methoxyphenyl)acetyl]-3-(4-pyridinyl)-1H-pyrazolo[4,3-c]pyridine]
[1]
  IC50: 1000 to 100000 nM
